Measurements from the NIST ThermoML archive (doi:10.1016/j.jct.2016.10.023).
± gives the expanded uncertainty stated by the source.

Test: xn = mol fraction of the nth substance listed
Conditions: Constant-volume piezometry

CCCCC [pentane] + CCCO
Liquid
Conditions	mass density [kg/m3]
305.05 K, x1 = 0.8	631.08 ± 3.8
312.65 K, x1 = 0.8	623.57 ± 3.8
317.85 K, x1 = 0.5	663.63 ± 4
324.25 K, x1 = 0.8	611.04 ± 3.7
334.25 K, x1 = 0.8	601.01 ± 3.6
351.05 K, x1 = 0.5	631.49 ± 3.8
353.55 K, x1 = 0.8	575.9 ± 3.5
368.45 K, x1 = 0.5	611.87 ± 3.7
372.15 K, x1 = 0.8	553.38 ± 3.3
381.85 K, x1 = 0.2	663.76 ± 4
383.55 K, x1 = 0.5	592.03 ± 3.6
394.65 K, x1 = 0.8	524.7 ± 3.2
396.15 K, x1 = 0.2	640.78 ± 3.9
410.15 K, x1 = 0.8	499.43 ± 3
410.75 K, x1 = 0.5	551.97 ± 3.3
415.75 K, x1 = 0.2	618.67 ± 3.7
425.55 K, x1 = 0.8	469.31 ± 2.8
429.15 K, x1 = 0.2	598.54 ± 3.6
431.15 K, x1 = 0.5	522.22 ± 3.1

Conditions	mass density [kg/m3]
308.15 K, 2402 kPa, Liquid, x1 = 0.8	630.94 ± 1.3
313.15 K, 157 kPa, Liquid, x1 = 0.8	623.55 ± 1.2
313.15 K, 6022 kPa, Liquid, x1 = 0.8	630.7 ± 1.3
314.15 K, 765 kPa, Liquid, x1 = 0.8	623.51 ± 1.2
318.15 K, 3615 kPa, Liquid, x1 = 0.8	623.33 ± 1.2
323.15 K, 3447 kPa, Liquid, x1 = 0.5	663.38 ± 1.3
323.15 K, 7107 kPa, Liquid, x1 = 0.8	623.1 ± 1.2
323.15 K, 13373 kPa, Liquid, x1 = 0.8	630.24 ± 1.3
325.15 K, 801 kPa, Liquid, x1 = 0.8	611.01 ± 1.2
333.15 K, 5935 kPa, Liquid, x1 = 0.8	610.66 ± 1.2
333.15 K, 9686 kPa, Liquid, x1 = 0.5	662.92 ± 1.3
333.15 K, 14195 kPa, Liquid, x1 = 0.8	622.65 ± 1.2
333.15 K, 20785 kPa, Liquid, x1 = 0.8	629.77 ± 1.3
335.15 K, 769 kPa, Liquid, x1 = 0.8	600.98 ± 1.2
338.15 K, 2550 kPa, Liquid, x1 = 0.8	600.85 ± 1.2
343.15 K, 5592 kPa, Liquid, x1 = 0.8	600.65 ± 1.2
343.15 K, 12414 kPa, Liquid, x1 = 0.8	610.23 ± 1.2
343.15 K, 16000 kPa, Liquid, x1 = 0.5	662.46 ± 1.3
343.15 K, 21183 kPa, Liquid, x1 = 0.8	622.2 ± 1.3
343.15 K, 28234 kPa, Liquid, x1 = 0.8	629.31 ± 1.3
351.15 K, 441 kPa, Liquid, x1 = 0.5	631.49 ± 1.3
353.15 K, 1647 kPa, Liquid, x1 = 0.5	631.4 ± 1.3
353.15 K, 11601 kPa, Liquid, x1 = 0.8	600.23 ± 1.2
353.15 K, 18747 kPa, Liquid, x1 = 0.8	609.8 ± 1.2
353.15 K, 22340 kPa, Liquid, x1 = 0.5	661.99 ± 1.3
353.15 K, 28151 kPa, Liquid, x1 = 0.8	621.75 ± 1.3
353.15 K, 35636 kPa, Liquid, x1 = 0.8	628.84 ± 1.3
355.15 K, 1219 kPa, Liquid, x1 = 0.8	575.84 ± 1.1
358.15 K, 2713 kPa, Liquid, x1 = 0.8	575.73 ± 1.1
363.15 K, 5237 kPa, Liquid, x1 = 0.8	575.54 ± 1.2
363.15 K, 7726 kPa, Liquid, x1 = 0.5	630.97 ± 1.3
363.15 K, 17738 kPa, Liquid, x1 = 0.8	599.81 ± 1.2
363.15 K, 25314 kPa, Liquid, x1 = 0.8	609.37 ± 1.2
363.15 K, 28606 kPa, Liquid, x1 = 0.5	661.53 ± 1.3
363.15 K, 35183 kPa, Liquid, x1 = 0.8	621.29 ± 1.3
363.15 K, 42979 kPa, Liquid, x1 = 0.8	628.38 ± 1.3
372.65 K, 854 kPa, Liquid, x1 = 0.8	553.36 ± 1.1
373.15 K, 1058 kPa, Liquid, x1 = 0.8	553.35 ± 1.1
373.15 K, 3137 kPa, Liquid, x1 = 0.5	611.68 ± 1.2
373.15 K, 10414 kPa, Liquid, x1 = 0.8	575.16 ± 1.2
373.15 K, 13490 kPa, Liquid, x1 = 0.5	630.54 ± 1.3
373.15 K, 23787 kPa, Liquid, x1 = 0.8	599.4 ± 1.2
373.15 K, 31687 kPa, Liquid, x1 = 0.8	608.94 ± 1.2
373.15 K, 34882 kPa, Liquid, x1 = 0.5	661.07 ± 1.4
373.15 K, 42247 kPa, Liquid, x1 = 0.8	620.84 ± 1.3
378.15 K, 5874 kPa, Liquid, x1 = 0.5	611.47 ± 1.2
383.15 K, 1487 kPa, Liquid, x1 = 0.2	663.69 ± 1.3
383.15 K, 4567 kPa, Liquid, x1 = 0.5	602.79 ± 1.2
383.15 K, 5590 kPa, Liquid, x1 = 0.8	552.99 ± 1.1
383.15 K, 8687 kPa, Liquid, x1 = 0.5	611.26 ± 1.2
383.15 K, 15678 kPa, Liquid, x1 = 0.8	574.78 ± 1.2
383.15 K, 19194 kPa, Liquid, x1 = 0.5	630.11 ± 1.3
383.15 K, 29885 kPa, Liquid, x1 = 0.8	598.99 ± 1.2
383.15 K, 38107 kPa, Liquid, x1 = 0.8	608.51 ± 1.2
384.15 K, 1047 kPa, Liquid, x1 = 0.5	592.01 ± 1.2
393.15 K, 941 kPa, Liquid, x1 = 0.5	579.06 ± 1.2
393.15 K, 5707 kPa, Liquid, x1 = 0.5	591.66 ± 1.2
393.15 K, 8491 kPa, Liquid, x1 = 0.2	663.21 ± 1.3
393.15 K, 10012 kPa, Liquid, x1 = 0.5	602.39 ± 1.2
393.15 K, 10151 kPa, Liquid, x1 = 0.8	552.64 ± 1.1
393.15 K, 14096 kPa, Liquid, x1 = 0.5	610.86 ± 1.2
393.15 K, 20747 kPa, Liquid, x1 = 0.8	574.4 ± 1.2
393.15 K, 25038 kPa, Liquid, x1 = 0.5	629.68 ± 1.3
393.15 K, 36012 kPa, Liquid, x1 = 0.8	598.57 ± 1.2
393.15 K, 44637 kPa, Liquid, x1 = 0.8	608.08 ± 1.2
395.15 K, 1157 kPa, Liquid, x1 = 0.8	524.69 ± 1.1
398.15 K, 2324 kPa, Liquid, x1 = 0.8	524.59 ± 1.1
403.15 K, 905 kPa, Gas, x1 = 0.8	22.65 ± 0.07
403.15 K, 4215 kPa, Liquid, x1 = 0.8	524.43 ± 1.1
403.15 K, 4306 kPa, Liquid, x1 = 0.2	640.49 ± 1.3
403.15 K, 5622 kPa, Liquid, x1 = 0.5	578.69 ± 1.2
403.15 K, 10647 kPa, Liquid, x1 = 0.5	591.27 ± 1.2
403.15 K, 14687 kPa, Liquid, x1 = 0.8	552.29 ± 1.1
403.15 K, 15313 kPa, Liquid, x1 = 0.2	662.74 ± 1.3
403.15 K, 15471 kPa, Liquid, x1 = 0.5	601.98 ± 1.2
403.15 K, 19586 kPa, Liquid, x1 = 0.5	610.45 ± 1.2
403.15 K, 25962 kPa, Liquid, x1 = 0.8	574.02 ± 1.2
403.15 K, 30841 kPa, Liquid, x1 = 0.5	629.25 ± 1.3
403.15 K, 42147 kPa, Liquid, x1 = 0.8	598.16 ± 1.2
413.15 K, 944 kPa, Gas, x1 = 0.8	22.64 ± 0.07
413.15 K, 2137 kPa, Liquid, x1 = 0.5	551.89 ± 1.1
413.15 K, 2268 kPa, Liquid, x1 = 0.8	499.34 ± 1
413.15 K, 7884 kPa, Liquid, x1 = 0.8	524.12 ± 1.1
413.15 K, 10313 kPa, Liquid, x1 = 0.5	578.32 ± 1.2
413.15 K, 10612 kPa, Liquid, x1 = 0.2	640.04 ± 1.3
413.15 K, 15843 kPa, Liquid, x1 = 0.5	590.88 ± 1.2
413.15 K, 19245 kPa, Liquid, x1 = 0.8	551.94 ± 1.1
413.15 K, 21025 kPa, Liquid, x1 = 0.5	601.58 ± 1.2
413.15 K, 22059 kPa, Liquid, x1 = 0.2	662.26 ± 1.3
413.15 K, 24988 kPa, Liquid, x1 = 0.5	610.04 ± 1.2
413.15 K, 31136 kPa, Liquid, x1 = 0.8	573.65 ± 1.2
413.15 K, 36585 kPa, Liquid, x1 = 0.5	628.82 ± 1.3
414.15 K, 712 kPa, Gas, x1 = 0.5	15.6 ± 0.05
415.15 K, 715 kPa, Gas, x1 = 0.5	15.6 ± 0.05
416.15 K, 1229 kPa, Liquid, x1 = 0.2	618.66 ± 1.2
416.15 K, 1374 kPa, Gas, x1 = 0.8	36.88 ± 0.11
423.15 K, 737 kPa, Gas, x1 = 0.5	15.59 ± 0.05
423.15 K, 982 kPa, Gas, x1 = 0.8	22.63 ± 0.07
423.15 K, 1418 kPa, Gas, x1 = 0.8	36.86 ± 0.11
423.15 K, 4884 kPa, Liquid, x1 = 0.2	618.37 ± 1.2
423.15 K, 5404 kPa, Liquid, x1 = 0.8	499.05 ± 1
423.15 K, 5815 kPa, Liquid, x1 = 0.5	551.55 ± 1.1
423.15 K, 11608 kPa, Liquid, x1 = 0.8	523.8 ± 1.1
423.15 K, 14921 kPa, Liquid, x1 = 0.5	577.95 ± 1.2
423.15 K, 16915 kPa, Liquid, x1 = 0.2	639.59 ± 1.3
423.15 K, 20842 kPa, Liquid, x1 = 0.5	590.5 ± 1.2
423.15 K, 23598 kPa, Liquid, x1 = 0.8	551.59 ± 1.1
423.15 K, 26392 kPa, Liquid, x1 = 0.5	601.18 ± 1.2
423.15 K, 28950 kPa, Liquid, x1 = 0.2	661.79 ± 1.4
423.15 K, 30447 kPa, Liquid, x1 = 0.5	609.63 ± 1.2
423.15 K, 36411 kPa, Liquid, x1 = 0.8	573.27 ± 1.2
426.15 K, 1900 kPa, Liquid, x1 = 0.8	469.29 ± 0.94
432.15 K, 2018 kPa, Liquid, x1 = 0.5	522.19 ± 1.1
433.15 K, 760 kPa, Gas, x1 = 0.5	15.59 ± 0.05
433.15 K, 1023 kPa, Gas, x1 = 0.8	22.62 ± 0.07
433.15 K, 1472 kPa, Gas, x1 = 0.8	36.85 ± 0.11
433.15 K, 2403 kPa, Liquid, x1 = 0.5	522.16 ± 1.1
433.15 K, 3158 kPa, Liquid, x1 = 0.2	598.39 ± 1.2
433.15 K, 3619 kPa, Liquid, x1 = 0.8	469.11 ± 0.95
433.15 K, 8493 kPa, Liquid, x1 = 0.8	498.76 ± 1
433.15 K, 9460 kPa, Liquid, x1 = 0.5	551.22 ± 1.1
433.15 K, 10196 kPa, Liquid, x1 = 0.2	617.96 ± 1.2
433.15 K, 15352 kPa, Liquid, x1 = 0.8	523.48 ± 1.1
433.15 K, 19645 kPa, Liquid, x1 = 0.5	577.58 ± 1.2
433.15 K, 23135 kPa, Liquid, x1 = 0.2	639.15 ± 1.3
433.15 K, 26095 kPa, Liquid, x1 = 0.5	590.11 ± 1.2
433.15 K, 28096 kPa, Liquid, x1 = 0.8	551.24 ± 1.1
433.15 K, 31893 kPa, Liquid, x1 = 0.5	600.78 ± 1.2
